Results from article PMC12402003 (Frontiers in Nutrition, 2025).

Columns and labels:
[1] = test system: HepG2 cells; assay: MTT cell viability assay in HepG2 cells; format: cell-based, human; conditions: 24 h; for effect on cell viability: 50 μM; for cytotoxicity: 100 μM
Method: Cell culture: […] Subsequently, the supernatant was removed and 200 μL of MTT solution (0.1 mg/mL) was added to each well to incubate for an additional 4 h (200 μL for Caco-2 cells, 100 μL for HepG2 cells, both at a concentration of 0.1 mg/mL). Finally, formazan crystals were completely dissolved in DMSO in a shaker for 10 min and the absorbance was measured at a wavelength of 490 nm using a microplate absorbance reader (FLUOstar Omera, BMG Labtech, Germany). Cell viability was determined using the following equation: Cell viability (%) = (OD sample/OD control) × 100, where OD is the optical density. The absorbance values for drug fractions […], catechin, and […]-catechin) were compared to those of untreated culture (control). Each treatment was set up in triplicate.

[2] = test system: Caco-2 cell monolayers; assay: Bidirectional transport across Caco-2 cell monolayer; format: in vitro ADME, human; conditions: for efflux rate (BL to AP side) / absorption rate (AP to BL side): 50 μM; for efflux rate (BL to AP side): up to 150 min; for absorption rate (AP to BL side): within 150 min; for ER (efflux rate) / Papp (AP → BL) / Papp (BL → AP): 50 μmol/L, no inhibitor; for transport mechanism into the small intestine: inferred from ER < 1 and inhibitor study
Method: The cells were seeded at a density of approximately 10^5 cells/cm^2 on TranswellTM filter (Corning Inc., Lowell, MA) and cultured for 21 d before use. Cell monolayer integrity was controlled by the measurement of trans-epithelial electrical resistance (TEER) with an EVOM epithelial voltammeter equipped with an electrode (World Precision Instruments, Sarasota, FL, United States). […] (a) R(%)=CBL×VBL/CAP×VAP×100 In this, R represents the absorption rate (as a percentage); CBL is the anthocyanin concentration of the BL side (in μM); VBL is the volume of anthocyanins from the BL (in L); CAP is the initial anthocyanin concentration of the AP side (in μM), and VAP is the volume of anthocyanins in the AP chamber (in L). The absorption rate of anthocyanins from BL to AP is calculated using the following Equation b: (b) R(%)=CAP×VAP/CBL×VBL×100 In this, R represents the absorption rate (as a percentage); CAP is the anthocyanin concentration from the AP side (in μM); VAP is the volume of anthocyanins in the AP chamber (in mL); CBL is the initial concentration from the BL side (in μM) and VBL is the volume of anthocyanins in the BL chamber (in L).

[3] = test system: Plin1; assay: Western blot of Plin1 protein in Caco-2/HepG2 co-culture; format: cell-based, human; conditions: OA-induced co-culture, 50 μM, 24 h; compared vs. OA
Method: (§1) Cells from the co-culture model were lysed and supernatants were collected. The protein concentrations were determined using the BCA Protein Quantitation Kit. Then electrophoresis of samples was conducted using a SDS-PAGE kit (Beyotime Biotechnology) following the manufacturer’s instructions and transferred to poly-vinylidene difluoride (PVDF) membrane. Next, membranes were incubated in 5% nonfat milk to block non-specific antibody binding for 30 min at room temperature and followed by incubating with primary antibodies and secondary antibodies. Chemiluminescence based-images of the blots were acquired using ImageQuant LAS 500 system (GE, United States). Protein bands were quantified using ImageJ (version 1.53a) software. The changes in expression levels of these proteins detected finally are used to evaluate the sample’s effect on lipid metabolism.

[4] = test system: Pparγ; assay: Western blot of PPARγ protein in Caco-2/HepG2 co-culture; format: cell-based, human; conditions: OA-induced co-culture, 50 μM, 24 h; compared vs. OA
Method: as §1

[5] = molecular target: MRP2 (Homo sapiens, UniProt Q92887); assay: Bidirectional Caco-2 transport with probenecid (MRP inhibitor); conditions: for ER (efflux rate) / Papp (AP → BL) / Papp (BL → AP): 50 μmol/L, + Prob (probenecid 1 mM); for substrate of MRP2: bidirectional assay with probenecid 1 mM
Method: Transport assay: The monolayers were pre-incubated at 37°C for 30–40 min with 5% CO2 in a pre-warmed media, which contained Hanks Balanced Salt solution (HBSS, BioWhittaker), HEPES buffer and D-glucose. For the transport of apical (AP) side to basolateral (BL) side, the media was removed after pre-incubation and 0.5 mL of polyphenols was added to the AP side. 1.5 mL of HBSS were added to the BL side. Then 200 μL of samples were taken from the BL side at 30, 60, 90, 120 and 150 min, respectively. The BA sample volumes removed were therewith replenished with same volumes of the HBSS solution. For the transport of BL to AP, polyphenols were added to BL and samples were taken from AP at a series of time points as above mentioned. The TEER was measured from the beginning to the end of the assay.
Caco-2 cells (1×10^5 cells/well) were cultured in 96-well plates for 24 h until differentiation, with a TEER value exceeding 400 Ω·cm^2. Bidirectional transport experiments from AP to BL or from BL to AP were performed as mentioned in the transport assay. The apparent permeability coefficients, cumulative release and initial concentrations and efflux rates were determined. In brief, the total transport time was set to 150 min. For AP to BL transport, 0.5 mL of polyphenols were added to AP with 1.5 mL of HBSS to the BL side. 200 μL of samples were collected from BL at different time points (30, 60, 90, 120, and 150 min). For BL to AP transport, polyphenols were added to BL and samples were collected from AP as the mentioned above.

[6] = test system: HepG2 cells; assay: Oil Red O lipid content in OA-induced high-fat HepG2 cells; conditions: 1 mM OA-induced HepG2 cells, 50 μM, 24 h
Method: For the lipid content assay: The cells were treated with 1 mM oleic acid (OA). […] The absorbance value was recorded at 530 nm using a microplate absorbance reader. Isopropanol solvent was used as a control ([14]).

MRP2, sequence (Q92887 whole entry): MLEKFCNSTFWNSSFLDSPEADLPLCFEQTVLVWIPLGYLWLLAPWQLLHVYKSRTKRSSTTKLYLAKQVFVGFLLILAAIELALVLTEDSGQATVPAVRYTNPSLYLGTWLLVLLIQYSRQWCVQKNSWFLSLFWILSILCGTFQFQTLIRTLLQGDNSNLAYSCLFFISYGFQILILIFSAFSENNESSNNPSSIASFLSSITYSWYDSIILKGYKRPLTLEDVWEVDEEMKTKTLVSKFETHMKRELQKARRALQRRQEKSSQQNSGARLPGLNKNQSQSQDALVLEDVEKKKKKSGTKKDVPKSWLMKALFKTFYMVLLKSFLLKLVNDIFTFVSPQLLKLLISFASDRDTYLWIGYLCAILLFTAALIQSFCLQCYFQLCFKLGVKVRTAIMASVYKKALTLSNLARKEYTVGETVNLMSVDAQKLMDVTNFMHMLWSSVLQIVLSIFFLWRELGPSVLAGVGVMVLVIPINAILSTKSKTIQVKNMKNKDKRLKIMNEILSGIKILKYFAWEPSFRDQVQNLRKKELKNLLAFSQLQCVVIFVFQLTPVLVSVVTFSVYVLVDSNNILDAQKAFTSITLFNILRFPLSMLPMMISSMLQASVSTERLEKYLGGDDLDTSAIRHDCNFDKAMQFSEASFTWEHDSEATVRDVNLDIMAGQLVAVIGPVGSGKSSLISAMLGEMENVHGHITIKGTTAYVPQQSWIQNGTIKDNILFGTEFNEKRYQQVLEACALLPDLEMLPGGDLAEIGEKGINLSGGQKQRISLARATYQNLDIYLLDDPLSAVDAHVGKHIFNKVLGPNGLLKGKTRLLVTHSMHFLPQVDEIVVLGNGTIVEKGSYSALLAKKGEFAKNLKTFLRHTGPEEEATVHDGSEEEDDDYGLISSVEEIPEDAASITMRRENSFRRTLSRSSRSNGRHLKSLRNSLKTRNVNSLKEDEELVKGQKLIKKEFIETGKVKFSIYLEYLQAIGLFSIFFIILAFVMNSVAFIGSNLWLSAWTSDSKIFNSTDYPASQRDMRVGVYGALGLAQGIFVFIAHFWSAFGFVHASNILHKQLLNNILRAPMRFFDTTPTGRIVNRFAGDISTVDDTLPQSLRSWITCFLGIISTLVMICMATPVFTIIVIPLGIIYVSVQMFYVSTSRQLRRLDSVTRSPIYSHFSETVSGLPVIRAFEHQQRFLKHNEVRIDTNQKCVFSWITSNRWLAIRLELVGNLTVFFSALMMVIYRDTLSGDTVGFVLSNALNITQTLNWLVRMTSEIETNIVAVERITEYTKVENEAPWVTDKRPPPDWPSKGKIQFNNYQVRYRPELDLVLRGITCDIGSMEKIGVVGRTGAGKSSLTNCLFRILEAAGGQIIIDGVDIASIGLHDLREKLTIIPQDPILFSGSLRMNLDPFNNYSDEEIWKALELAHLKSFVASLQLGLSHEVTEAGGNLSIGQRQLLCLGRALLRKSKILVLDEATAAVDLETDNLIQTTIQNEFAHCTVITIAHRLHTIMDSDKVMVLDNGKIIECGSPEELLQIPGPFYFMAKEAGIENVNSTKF

Structure (SMILES)	effect on cell viability [1]	cytotoxicity [1]	efflux rate (BL to AP side) [2] [%]	absorption rate (AP to BL side) [2] [%]	ER (efflux rate) ([2]; 30 min)	Papp (AP → BL) ([2]; 30 min)	Papp (BL → AP) ([2]; 30 min)	ER (efflux rate) ([2]; 60 min)	Papp (AP → BL) ([2]; 60 min)	Papp (BL → AP) ([2]; 60 min)	ER (efflux rate) ([2]; 90 min)	Papp (BL → AP) ([2]; 90 min)	ER (efflux rate) ([2]; 120 min)	Papp (AP → BL) ([2]; 120 min)	Papp (BL → AP) ([2]; 120 min)	ER (efflux rate) ([2]; 150 min)	Papp (AP → BL) ([2]; 150 min)	Papp (BL → AP) ([2]; 150 min)	transport mechanism into the small intestine [2]	Plin1 protein expression level (densitometry) [3]	further results
OC[C@H]1O[C@@H](Oc2cc3c(O)cc(O)cc3[o+]c2-c2ccc(O)c(O)c2)[C@H](O)[C@@H](O)[C@@H]1O [C3G, Cyanidin-3-O-glucoside]	no significant effects	comparable cytotoxicity	15.41	22.47	0.49	3.9 ± 1.32^Aa* ×10^−5 cm /s	1.8 ± 0.14^Ba ×10^−5 cm /s	0.56	1.8 ± 0.07^Cb* ×10^−5 cm /s	1.0 ± 0.17^Bb ×10^−5 cm /s	0.53	0.6 ± 0.04^Cc ×10^−5 cm /s	0.57	0.9 ± 0.03^Cb* ×10^−5 cm /s	0.5 ± 0.08^Ccd ×10^−5 cm /s	0.54	0.7 ± 0.03^Bb* ×10^−5 cm /s	0.4 ± 0.04^Cde ×10^−5 cm /s	passive diffusion	1.12	Papp (AP → BL) ([2]; 90 min): 1.1 ± 0.02^Cb* ×10^−5 cm /s; PPARγ protein expression level (densitometry) [4]: 1.03; ER (efflux rate) ([5]; 30 min): 0.63; Papp (AP → BL) ([5]; 30 min): 8.47 ± 0.39 ×10^−5 cm /s; Papp (BL → AP) ([5]; 30 min): 5.31 ± 0.72 ×10^−5 cm /s; ER (efflux rate) ([5]; 60 min): 0.61; Papp (AP → BL) ([5]; 60 min): 4.55 ± 0.09 ×10^−5 cm /s; Papp (BL → AP) ([5]; 60 min): 2.79 ± 0.37 ×10^−5 cm /s; ER (efflux rate) ([5]; 90 min): 0.52; Papp (AP → BL) ([5]; 90 min): 3.12 ± 0.02 ×10^−5 cm /s; Papp (BL → AP) ([5]; 90 min): 1.62 ± 0.08 ×10^−5 cm /s; ER (efflux rate) ([5]; 120 min): 0.53; Papp (AP → BL) ([5]; 120 min): 2.45 ± 0.03 ×10^−5 cm /s; Papp (BL → AP) ([5]; 120 min): 1.29 ± 0.09 ×10^−5 cm /s; ER (efflux rate) ([5]; 150 min): 0.56; Papp (AP → BL) ([5]; 150 min): 1.83 ± 0.09 ×10^−5 cm /s; Papp (BL → AP) ([5]; 150 min): 1.06 ± 0.04 ×10^−5 cm /s; substrate of MRP2 [5]: not substrates; decrease of lipid absorption rate (Oil Red O lipid droplets) [6]: 22.35%
O.Oc1cc(O)c2c(c1)O[C@H](c1ccc(O)c(O)c1)[C@@H](O)C2 [catechin]	no significant effects	comparable cytotoxicity	68.71	73.41	0.77	7.9 ± 0.26^Ba ×10^−5 cm /s	6.1 ± 2.78^Aa ×10^−5 cm /s	0.55	4.6 ± 0.43^Ab* ×10^−5 cm /s	2.5 ± 0.28^Ab ×10^−5 cm /s	0.52	1.6 ± 0.11^Ab ×10^−5 cm /s	0.51	2.5 ± 0.19^Ad* ×10^−5 cm /s	1.31 ± 0.13^Ab ×10^−5 cm /s	0.48	2.2 ± 0.52^Ad* ×10^−5 cm /s	1.0 ± 0.03^Ab ×10^−5 cm /s	passive diffusion	1.14	PPARγ protein expression level (densitometry) [4]: 1.08; ER (efflux rate) ([5]; 30 min): 0.58; Papp (AP → BL) ([5]; 30 min): 9.19 ± 0.53 ×10^−5 cm /s; Papp (BL → AP) ([5]; 30 min): 5.36 ± 0.52 ×10^−5 cm /s; ER (efflux rate) ([5]; 60 min): 0.56; Papp (AP → BL) ([5]; 60 min): 4.46 ± 0.36 ×10^−5 cm /s; Papp (BL → AP) ([5]; 60 min): 2.50 ± 0.27 ×10^−5 cm /s; ER (efflux rate) ([5]; 90 min): 0.52; Papp (BL → AP) ([5]; 90 min): 1.64 ± 0.37 ×10^−5 cm /s; ER (efflux rate) ([5]; 120 min): 0.51; Papp (AP → BL) ([5]; 120 min): 2.48 ± 0.19 ×10^−5 cm /s; Papp (BL → AP) ([5]; 120 min): 1.27 ± 0.27 ×10^−5 cm /s; ER (efflux rate) ([5]; 150 min): 0.48; Papp (AP → BL) ([5]; 150 min): 1.93 ± 0.49 ×10^−5 cm /s; Papp (BL → AP) ([5]; 150 min): 0.98 ± 0.34 ×10^−5 cm /s; substrate of MRP2 [5]: not substrates; decrease of lipid absorption rate (Oil Red O lipid droplets) [6]: 31.24%
